Measurements published in patent US20230075521A1, “RESVERATROL PHARMACEUTICAL COMPOSITIONS AND METHODS OF USE THEREOF” (priority 2021, published 2023).
Values joined by “and” are separate entries in the source; they are usually repeats but may differ in a detail not shown here. Equal values may be shown once. Read-outs that look alike come from different tables or passages of the source.

Tests used:
[1] = cited from earlier work
[2] = Rat PK study, resveratrol in plasma at 30 min; assay type: in vivo; details: male, oral, 50 mg/kg, Sprague-Dawley rats, single dose, 30 min after treatment
Procedure: For mouse PK studies, male CD-1 mice (Charles River Canada) were used. Animals were food fasted for 4 h prior to dosing and water fasted 1 h prior to dosing. […] At each time point (15 min, 30 min, 1 h, 4 h) 3 mice of each group were terminally bled via cardiac puncture under red light. Blood was collected into sodium-EDTA tubes under red light and spun at […] for 10 min at 6800×g. Plasma was collected and split into amber tubes. Both left and right brain were collected and snap-frozen in liquid nitrogen and stored at […] Drug concentrations were analyzed by liquid chromatography-mass spectrometry (LC-MS/MS) by KDM Laboratories Inc. For rat PK studies, male Sprague-Dawley rats (Charles River Canada) were used. […] Blood was collected under red light from the trunk at 30 min into K3EDTA tubes and centrifuged immediately at 4° C. for 10 min at 6800×g, and plasma collected into amber tubes. Brains were collected and snap-frozen in liquid nitrogen and stored at […] Drug concentration was analyzed by LC-MS/MS.

[3] = tested on: Human Aβ1-42, Aβ1-40, phosphorylated tau, total tau; test: ELISA of AD pathological hallmarks in brain tissue; assay type: in vivo, 3×Tg-AD mouse; details: 50 mg/kg oral, 9 months
Procedure: At study endpoints (age 15 months for sub-chronic study, age 13 months for long-term study), mice were anaesthetized with isoflurane and blood was collected by transcardial puncture. Blood was stored on ice and then centrifuged at 10,000×g at 4° C. for 10 min to collect serum and stored at −80° C. until use. The brain was then extracted and quickly dissected on ice to collect prefrontal cortex (PFC), hippocampus, entorhinal cortex (ERC), and cerebellum, which were immediately frozen in liquid nitrogen. The samples were stored at −80° C. until processed for RNA or protein extraction. […]
Protein lysates were extracted by sonicating tissue in M-PER Mammalian Protein Extraction Reagent (Thermo Fisher Scientific) supplemented with protease inhibitor (Thermo Fisher Scientific) and phosphatase inhibitor (Thermo Fisher Scientific). Total protein was quantified using Pierce BCA Protein Assay Kit (Thermo Fisher Scientific) and read at 562 nm using EnVision (Perkin Elmer).
Human Aβ1-42, Aβ1-40, phosphorylated tau Ser 396, phosphorylated tau Thr181, and total tau were measured in brain tissue by enzyme linked immuno-sorbent assay (ELISA; Invitrogen by Thermo) and normalized to total protein. All the kits were used as per the manufacturer's instructions and measured using the EnVision® multimode plate reader (Perkin Elmer). […]

[4] = tested on: serum cytokines and chemokines; test: Serum cytokine and chemokine levels (48-Plex ProcartaPlex, Luminex); assay type: in vivo, 3×Tg-AD mouse; details: 50 mg/kg oral, 9 months
Procedure: At study endpoints (age 15 months for sub-chronic study, age 13 months for long-term study), mice were anaesthetized with isoflurane and blood was collected by transcardial puncture. Blood was stored on ice and then centrifuged at 10,000×g at 4° C. for 10 min to collect serum and stored at −80° C. until use. The brain was then extracted and quickly dissected on ice to collect prefrontal cortex (PFC), hippocampus, entorhinal cortex (ERC), and cerebellum, which were immediately frozen in liquid nitrogen. The samples were stored at −80° C. until processed for RNA or protein extraction. For each mouse, brain regions from one hemisphere were used for RNA preparation and qPCR and sections from the other hemisphere were used for protein work including ELISAs.
Human Aβ1-42, Aβ1-40, phosphorylated tau Ser 396, phosphorylated tau Thr181, and total tau were measured in brain tissue by enzyme linked immuno-sorbent assay (ELISA; Invitrogen by Thermo) and normalized to total protein. All the kits were used as per the manufacturer's instructions and measured using the EnVision® multimode plate reader (Perkin Elmer). Serum and brain tissue protein extracts were analyzed for cytokine and chemokine levels using the Immune Monitoring 48-Plex Mouse ProcartaPlex™ Panel (Invitrogen by Thermo) according to manufacturer's standard protocol and read using Luminex xMAP (multi-analyte profiling) technology.

Compound: Oc1ccc(/C=C/c2cc(O)cc(O)c2)cc1 [RSV, (trans-)resveratrol]
- Cmax ([1]; 1 g encapsulated dose (Turner et al. 2015)): 85 ng/mL
- Cmax ([1]; 2.5 g micronized dose (Howells et al. 2011)): 1942 ng/mL
- AUC exposure, estimated ([1]; 3,000 mg/day, healthy volunteers, published data): 2100 ng·h/mL
- concentration at 30 min [2]: 180 ± 33.6 ng/mL
- Phospho-tau at Ser396 in PFC, RSV-treated vs vehicle ([3]; male 3×Tg-AD mice): significantly different
- Total tau in hippocampus, decrease vs vehicle ([3]; males and females analyzed together): 170.5±44.83
- BAFF serum level, change vs vehicle ([4]; female 3×Tg-AD mice): 22.01 pg/mL
- G-CSF serum level, change vs vehicle ([4]; female 3×Tg-AD mice): -0.68 pg/mL
- IFNg serum level, change vs vehicle ([4]; female 3×Tg-AD mice): 1.06 pg/mL
- IL-1b serum level, change vs vehicle ([4]; female 3×Tg-AD mice): 0.80 pg/mL
- IL-2RA serum level, change vs vehicle ([4]; female 3×Tg-AD mice): -71.13 pg/mL
- IL-3 serum level, change vs vehicle ([4]; female 3×Tg-AD mice): 0.15 pg/mL
- IL-5 serum level, change vs vehicle ([4]; female 3×Tg-AD mice): 0.05 pg/mL
- IL-6 serum level, change vs vehicle ([4]; female 3×Tg-AD mice): -10.05 pg/mL
- IL-9 serum level, change vs vehicle ([4]; female 3×Tg-AD mice): 13.83 pg/mL
- IL-10 serum level, change vs vehicle ([4]; female 3×Tg-AD mice): -8.54 pg/mL
- IL-12p70 serum level, change vs vehicle ([4]; female 3×Tg-AD mice): 0.15 pg/mL
- IL-13 serum level, change vs vehicle ([4]; female 3×Tg-AD mice): 15.44 pg/mL
- IL-15/IL-15R serum level, change vs vehicle ([4]; female 3×Tg-AD mice): 0.51 pg/mL
- IL-17A serum level, change vs vehicle ([4]; female 3×Tg-AD mice): -5.14 pg/mL
- IL-18 serum level, change vs vehicle ([4]; female 3×Tg-AD mice): -74.10 pg/mL
- IL-19 serum level, change vs vehicle ([4]; female 3×Tg-AD mice): -17.31 pg/mL
- IL-22 serum level, change vs vehicle ([4]; female 3×Tg-AD mice): -2.84 pg/mL
- IL-23 serum level, change vs vehicle ([4]; female 3×Tg-AD mice): 16.41 pg/mL
- IL-25/IL-17 serum level, change vs vehicle ([4]; female 3×Tg-AD mice): -12.62 pg/mL
- IL-27 serum level, change vs vehicle ([4]; female 3×Tg-AD mice): 0.92 pg/mL
- IL-28 serum level, change vs vehicle ([4]; female 3×Tg-AD mice): 5.70 pg/mL
- IL-33 serum level, change vs vehicle ([4]; female 3×Tg-AD mice): -4.36 pg/mL
- IP-10 serum level, change vs vehicle ([4]; female 3×Tg-AD mice): -9.75 pg/mL
- KC serum level, change vs vehicle ([4]; female 3×Tg-AD mice): -41.09 pg/mL
- LIF serum level, change vs vehicle ([4]; female 3×Tg-AD mice): -1.86 pg/mL
- LIX serum level, change vs vehicle ([4]; female 3×Tg-AD mice): 1701.00 pg/mL
- MCP-1 serum level, change vs vehicle ([4]; female 3×Tg-AD mice): -43.64 pg/mL
- MCP-3 serum level, change vs vehicle ([4]; female 3×Tg-AD mice): -212.20 pg/mL
- MIP-1a serum level, change vs vehicle ([4]; female 3×Tg-AD mice): 3.71 pg/mL
- MIP-1b serum level, change vs vehicle ([4]; female 3×Tg-AD mice): 0.17 pg/mL
- MIP-2 serum level, change vs vehicle ([4]; female 3×Tg-AD mice): -7.86 pg/mL
- RANTES serum level, change vs vehicle ([4]; female 3×Tg-AD mice): -9.09 pg/mL
- TNFa serum level, change vs vehicle ([4]; female 3×Tg-AD mice): -2.67 pg/mL
- sRANKL serum level, change vs vehicle ([4]; female 3×Tg-AD mice): -0.58 pg/mL
- Eotaxin serum level, change vs vehicle ([4]; female 3×Tg-AD mice, 50 mg/kg): -3162 ± 1165 pg/mL and -3162.00 pg/mL
- Leptin serum level, change vs vehicle ([4]; female 3×Tg-AD mice, 50 mg/kg): -33707 ± 9226 pg/mL and -33707.0 pg/mL
- BAFF serum level, change vs vehicle ([4]; male 3×Tg-AD mice): -44.06 pg/mL
- Eotaxin serum level, change vs vehicle ([4]; male 3×Tg-AD mice): 943.10 pg/mL
- G-CSF serum level, change vs vehicle ([4]; male 3×Tg-AD mice): -5.14 pg/mL
- IFNg serum level, change vs vehicle ([4]; male 3×Tg-AD mice): -0.66 pg/mL
- IL-1b serum level, change vs vehicle ([4]; male 3×Tg-AD mice): -5.86 pg/mL
- IL-2RA serum level, change vs vehicle ([4]; male 3×Tg-AD mice): -21.16 pg/mL
- IL-5 serum level, change vs vehicle ([4]; male 3×Tg-AD mice): 8.72 pg/mL
- IL-6 serum level, change vs vehicle ([4]; male 3×Tg-AD mice): -60.32 pg/mL
- IL-9 serum level, change vs vehicle ([4]; male 3×Tg-AD mice): -9.66 pg/mL
- IL-10 serum level, change vs vehicle ([4]; male 3×Tg-AD mice): 2.25 pg/mL
- IL-12p70 serum level, change vs vehicle ([4]; male 3×Tg-AD mice): -13.72 pg/mL
- IL-13 serum level, change vs vehicle ([4]; male 3×Tg-AD mice): -72.28 pg/mL
- IL-15/IL-15R serum level, change vs vehicle ([4]; male 3×Tg-AD mice): -11.93 pg/mL
- IL-17A serum level, change vs vehicle ([4]; male 3×Tg-AD mice): -6.64 pg/mL
- IL-18 serum level, change vs vehicle ([4]; male 3×Tg-AD mice): -415.10 pg/mL
- IL-19 serum level, change vs vehicle ([4]; male 3×Tg-AD mice): -23.06 pg/mL
- IL-23 serum level, change vs vehicle ([4]; male 3×Tg-AD mice): -12.74 pg/mL
- IL-25/IL-17 serum level, change vs vehicle ([4]; male 3×Tg-AD mice): -235.80 pg/mL
- IL-28 serum level, change vs vehicle ([4]; male 3×Tg-AD mice): -44.41 pg/mL
- IL-33 serum level, change vs vehicle ([4]; male 3×Tg-AD mice): 107.60 pg/mL
- IP-10 serum level, change vs vehicle ([4]; male 3×Tg-AD mice): -47.95 pg/mL
- KC serum level, change vs vehicle ([4]; male 3×Tg-AD mice): -90.17 pg/mL
- LIF serum level, change vs vehicle ([4]; male 3×Tg-AD mice): -8.06 pg/mL
- LIX serum level, change vs vehicle ([4]; male 3×Tg-AD mice): -6715.00 pg/mL
- Leptin serum level, change vs vehicle ([4]; male 3×Tg-AD mice): -1768.00 pg/mL
- MIP-1a serum level, change vs vehicle ([4]; male 3×Tg-AD mice): 4.01 pg/mL
- MIP-1b serum level, change vs vehicle ([4]; male 3×Tg-AD mice): -6.40 pg/mL
- RANTES serum level, change vs vehicle ([4]; male 3×Tg-AD mice): -24.75 pg/mL
- TNFa serum level, change vs vehicle ([4]; male 3×Tg-AD mice): -0.08 pg/mL
- VEGF-A serum level, change vs vehicle ([4]; male 3×Tg-AD mice): -17.68 pg/mL
- sRANKL serum level, change vs vehicle ([4]; male 3×Tg-AD mice): 4.06 pg/mL
- IL-3 serum level, change vs vehicle ([4]; male 3×Tg-AD mice, 50 mg/kg): -1.53 ± 0.26 pg/mL and -1.53 pg/mL
- IL-22 serum level, change vs vehicle ([4]; male 3×Tg-AD mice, 50 mg/kg): -23.37 ± 5.2 pg/mL and -23.37 pg/mL
- MIP-2 serum level, change vs vehicle ([4]; male 3×Tg-AD mice, 50 mg/kg): -16.16 ± 5.95 pg/mL and -16.16 pg/mL
